Reference: patent EP4324461A1, “(E)-N-CINAMOYLAMINOALKANOLES WITH MELANOGENESIS INHIBITORY ACTIVITY” (UNIWERSYTET JAGIELLONSKI, priority 2022, dated 2024)

Tests used:
[1] = test system: Chinese hamster ovary cell line (CHO-K1); test: Genotoxicity in the micronucleus test in CHO-K1 cells; assay type: cell-based
[2] = test system: human reconstructed epidermis model EpiDerm™; test: Extended skin irritation test in reconstructed human epidermis (EpiDerm), 2 and 7 days; assay type: cell-based; conditions: for Il-1α in culture medium: medium after the first 24 hours
Description: In order to perform extended skin irritation (safety) tests on the reconstructed human epidermis, the exposure time to the tested compounds was extended to 2 and 7 days in the human reconstructed epidermis model EpiDerm™ from MatTek. The epidermis was cultured according to the manufacturer's recommendations, using appropriate multi-well plates and culture media. Solutions of the tested compounds were applied to the epidermis using a positive displacement pipette and distributed using a sterile glass bulb headed Pasteur pipette. […] The epidermis was cultured in an incubator ensuring appropriate humidity, temperature (37 °C) and CO2 concentration (5%). The medium was replaced daily. After an appropriate incubation time, i.e. 2 days or 7 days, the epidermis was rinsed with sterile DPBS and incubated with MTT (Thiazolyl Blue Tetrazolium bromide) solution at 37 °C for 3 hours. After this time, a purple color of formazan was observed, correlated with tissue viability. […] Moreover, in the medium collected after the first 24 hours of EpiDerm epidermis culture, the level of interleukin 1α (Il-1α), which is a mediator of inflammation, was determined. Its level correlates with the unfavorable (irritating) effect of the tested substances on the epidermis. The level of IL-1α was determined using the Cayman Elisa test. […] Table 6. Viability results and results of interleukin 1α concentration measurement in the culture medium in the irritation test in the reconstructed human epidermis model EpiDerm.

[3] = test system: Chinese hamster ovary cell line (CHO-K1); test: Cytotoxicity in CHO-K1 cells (MTT) before the micronucleus test; assay type: cell-based; conditions: 24 hours
Method in brief: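 CHO-K1 cells in F-12K with 10% FBS, 37 °C, 5% CO2, exposed to compounds for 24 hours. Viability by MTT, relative to DMSO vehicle at matching concentration; used to pick safe concentrations for the micronucleus test.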

[4] = test system: S. typhimurium TA100; test: Ames microplate test, TA100; assay type: cell-based, Salmonella typhimurium;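 further: reference level is the mean solvent-control yellow wells plus SD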
Description: Bacteria were grown overnight in growth medium.
Table 9. Ames microplate test results.

[5] = test system: Keratinocytes (HaCaT); test: Safety, LDH test in keratinocytes; assay type: cell-based; conditions: 48 hours, positive control Triton X-100
Description: (§1) In order to test the safety of the compounds, both normal human cells were used: keratinocytes (HaCaT), fibroblasts (BJ), primary melanocytes that occur in the skin, as well as human cancer cells: the hepatocarcinoma line HepG2 and the neuroblastoma line SH-SY5Y, which are considered a model for the assessment of hepatocytotoxicity and neurocytotoxicity. The concentrations of the tested compounds in the range of 250-100 µM were used in the studies. The cell lines used in the research were purchased from the American Type Culture Collection (ATCC) and were cultured in media recommended by the manufacturer with the addition of FBS and antibiotics in an incubator ensuring appropriate culture conditions, i.e. humidity, temperature and CO2 concentration. Cells were seeded into multiwell plates and incubated with the test compounds for 48 hours. After this time, MTT and LDH tests were performed to assess cell viability. The MTT test is based on the ability to transform the substrate: [3-(4,5-dimethyl-2-thiazolyl)-2,5-diphenyl-2H-tetrazolium bromide into a colored product only by living cells. The absorbance at 570 nm, which corresponds to the absorption maximum for the product, is directly proportional to cell viability. The LDH test is based on testing the activity of the enzyme lactate dehydrogenase in the culture medium, which is released from cells as a result of damage to the cell membrane, e.g. as a result of cell death. Triton X-100 was used as a positive control in the test. The determination is colorimetric, the substrate is transformed by the released enzyme into a colored product, an increase in absorbance indicates a larger amount of the released enzyme, and thus confirms greater damage to cell membranes. Tables 7 and 8 present the results obtained, which correspond to the viability of cells incubated with the compounds in relation to the viability of cells constituting a control sample, i.e. incubated with the solvent (DMSO) at the same concentration as in the case of the groups tested in the MTT test or in relation to the results obtained for the Triton X-100 positive control in the LDH test. They indicate that the compounds are safe at the concentrations tested. Table 7. Viability of tested normal human cell lines: keratinocytes (HaCaT), fibroblasts (BJ) and primary melanocytes after incubation with the tested compounds - determination in the MTT test (% of solvent control ± SD) and LDH (percentage of positive control - Triton X-100.

[6] = test system: neuroblastoma SH-SY5Y; test: Safety, LDH test in SH-SY5Y; assay type: cell-based; conditions: 48 hours, positive control Triton X-100
Description: as §1

[7] = test system: neuroblastoma SH-SY5Y; test: Safety, MTT test in SH-SY5Y; assay type: cell-based; conditions: 48 hours
Description: as §1

[8] = test system: Hepatocarcinoma HepG2; test: Safety, LDH test in HepG2; assay type: cell-based; conditions: 48 hours, positive control Triton X-100
Description: as §1

[9] = test system: Primary melanocytes; test: Safety, LDH test in primary melanocytes; assay type: cell-based; conditions: 48 hours, positive control Triton X-100
Description: as §1

[10] = test system: Keratinocytes (HaCaT); test: Safety, MTT test in keratinocytes; assay type: cell-based; conditions: 48 hours
Description: as §1

[11] = 2 days, 1.0% in 50% PEG (10 µL)
[12] = 7 days, 1.0% in 50% PEG (10 µL)

O=C(/C=C/c1ccccc1)NCCCCCCO [H-425/21, (E)-N-(6-hydroxyhexyl)cinnamic acid amide]
DB (dicentric bridges in 1000 binucleate cells) ([1]; 100 µM): 2.5 ± 0.7
MN (number of micronuclei in 1000 binucleate cells) ([1]; 100 µM): 11.0 ± 4.2
NB (nuclear buds in 1000 binucleate cells) ([1]; 100 µM): 3.5 ± 0.7
NDI (nuclear division index) ([1]; 100 µM): 1.56
DB (dicentric bridges in 1000 binucleate cells) ([1]; 150 µM): 2.5 ± 2.1
MN (number of micronuclei in 1000 binucleate cells) ([1]; 150 µM): 11.5 ± 0.7
NB (nuclear buds in 1000 binucleate cells) ([1]; 150 µM): 3.5 ± 0.7
NDI (nuclear division index) ([1]; 150 µM): 1.52
DB (dicentric bridges in 1000 binucleate cells) ([1]; 200 µM): 4.5 ± 3.5
MN (number of micronuclei in 1000 binucleate cells) ([1]; 200 µM): 12.5 ± 6.4
NB (nuclear buds in 1000 binucleate cells) ([1]; 200 µM): 5.5 ± 0.7
NDI (nuclear division index) ([1]; 200 µM): 1.60
Il-1α in culture medium ([2]; 1.0% in 50% PEG (10 µL)): 60.29 ± 1.08 pg/mL
Viability [% of control, mean±SD] [2, 11]: 99.75±15.49 % of control
Viability [% of control, mean±SD] [2, 12]: 104.01±1.11 % of control
% Viability [mean] ([3]; 100 µM): 87.6%
% Viability [mean] ([3]; 150 µM): 83.8%
% Viability [mean] ([3]; 200 µM): 88.0%
Increase in the number of yellow wells compared to the reference level ([4]; 0.5 mM, +S9): 0.50
Increase in the number of yellow wells compared to the reference level ([4]; 0.5 mM, without S9): 0.73
Increase in the number of yellow wells compared to the reference level ([4]; 1.0 mM, +S9): 0.69
Increase in the number of yellow wells compared to the reference level ([4]; 1.0 mM, without S9): 0.80
Increase in the number of yellow wells compared to the reference level ([4]; 2.0 mM, +S9): 0.58
Increase in the number of yellow wells compared to the reference level ([4]; 2.0 mM, without S9): 0.73

O=C(/C=C/c1ccc(Cl)cc1)NCCCCCO [Compound A-111, (2E)-3-(4-chlorophenyl)-N-(5-hydroxypentyl)prop-2-enamide]
Keratinocytes (HaCaT) LDH ([5]; 100 µM): 4.69 percentage of positive control
Keratinocytes (HaCaT) LDH ([5]; 150 µM): 4.43 percentage of positive control
Keratinocytes (HaCaT) LDH ([5]; 200 µM): 6.49 percentage of positive control
Keratinocytes (HaCaT) LDH ([5]; 250 µM): 13.55 percentage of positive control
Neuroblastoma SH-SYSY LDH ([6]; 100 µM): 4.90 percentage of positive control
Neuroblastoma SH-SYSY LDH ([6]; 150 µM): 4.61 percentage of positive control
Neuroblastoma SH-SYSY LDH ([6]; 200 µM): 5.98 percentage of positive control
Neuroblastoma SH-SYSY LDH ([6]; 250 µM): 6.77 percentage of positive control
DB (dicentric bridges in 1000 binucleate cells) ([1]; 100 µM): 2.5 ± 0.7
MN (number of micronuclei in 1000 binucleate cells) ([1]; 100 µM): 4.5 ± 3.5
NB (nuclear buds in 1000 binucleate cells) ([1]; 100 µM): 2.0 ± 2.8
NDI (nuclear division index) ([1]; 100 µM): 1.60
DB (dicentric bridges in 1000 binucleate cells) ([1]; 150 µM): 4.0 ± 2.8
MN (number of micronuclei in 1000 binucleate cells) ([1]; 150 µM): 9.0 ± 5.7
NB (nuclear buds in 1000 binucleate cells) ([1]; 150 µM): 6.0 ± 1.0
NDI (nuclear division index) ([1]; 150 µM): 1.64
DB (dicentric bridges in 1000 binucleate cells) ([1]; 200 µM): 2.0 ± 2.8
MN (number of micronuclei in 1000 binucleate cells) ([1]; 200 µM): 10.0 ± 4.2
NB (nuclear buds in 1000 binucleate cells) ([1]; 200 µM): 2.5 ± 0.7
NDI (nuclear division index) ([1]; 200 µM): 1.64
Neuroblastoma SH-SYSY MTT ([7]; 100 µM): 100.14±3.22 % of solvent control
Neuroblastoma SH-SYSY MTT ([7]; 150 µM): 99.32±3.36 % of solvent control
Neuroblastoma SH-SYSY MTT ([7]; 200 µM): 100.55±2.31 % of solvent control
Neuroblastoma SH-SYSY MTT ([7]; 250 µM): 99.93±4.36 % of solvent control
Il-1α in culture medium ([2]; 1.0% in 50% PEG (10 µL)): 15.89 ± .057 pg/mL
Viability [% of control, mean±SD] ([2]; 2 days, 0.1% in 50% PEG (10 µL)): 88.42±1.25 % of control
Viability [% of control, mean±SD] ([2]; 2 days, 0.5% in 50% PEG (10 µL)): 92.02±3.47 % of control
Viability [% of control, mean±SD] [2, 11]: 98.56±11.78 % of control
Viability [% of control, mean±SD] ([2]; 7 days, 0.1% in 50% PEG (10 µL)): 107.77±3.12 % of control
Viability [% of control, mean±SD] ([2]; 7 days, 0.5% in 50% PEG (10 µL)): 113.85±4.03 % of control
Viability [% of control, mean±SD] [2, 12]: 100.41±1.52 % of control
Hepatocarcinoma HepG2 LDH ([8]; 100 µM): 4.90 percentage of positive control
Hepatocarcinoma HepG2 LDH ([8]; 150 µM): 4.73 percentage of positive control
Hepatocarcinoma HepG2 LDH ([8]; 200 µM): 5.48 percentage of positive control
Hepatocarcinoma HepG2 LDH ([8]; 250 µM): 9.75 percentage of positive control
Primary melanocytes LDH ([9]; 100 µM): 3.31 percentage of positive control
Primary melanocytes LDH ([9]; 150 µM): 4.95 percentage of positive control
Primary melanocytes LDH ([9]; 200 µM): 13.38 percentage of positive control
Primary melanocytes LDH ([9]; 250 µM): 18.41 percentage of positive control
% Viability [mean] ([3]; 100 µM): 86.1%
% Viability [mean] ([3]; 150 µM): 95.6%
% Viability [mean] ([3]; 200 µM): 98.6%
Increase in the number of yellow wells compared to the reference level ([4]; 0.5 mM, +S9): 0.97
Increase in the number of yellow wells compared to the reference level ([4]; 0.5 mM, without S9): 0.74
Increase in the number of yellow wells compared to the reference level ([4]; 1.0 mM, +S9): 0.47
Increase in the number of yellow wells compared to the reference level ([4]; 1.0 mM, without S9): 0.39
Increase in the number of yellow wells compared to the reference level ([4]; 2.0 mM, +S9): 0.67
Increase in the number of yellow wells compared to the reference level ([4]; 2.0 mM, without S9): 0.42
Keratinocytes (HaCaT) MTT ([10]; 100 µM): 101.68±3.45 % of solvent control
Keratinocytes (HaCaT) MTT ([10]; 150 µM): 101.56±1.94 % of solvent control
Keratinocytes (HaCaT) MTT ([10]; 200 µM): 101.04±2.77 % of solvent control
Keratinocytes (HaCaT) MTT ([10]; 250 µM): 91.57±2.10 % of solvent control
